Values joined by “and” are separate entries in the source; they are usually repeats but may differ in a detail not shown here. Equal entries are not always repeated.
Key:
[1] = tested on: METTL14; assay: Cellular degradation assay (Western blot), METTL14 in MOLM-13; assay type: cell-based, human; details: MOLM-13, 24 h, 2 μM compound
Outline: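 24h PROTAC exposure (DMSO 0.1% v/v control), 37 °C, 5% CO2; RIPA lysis, SDS-PAGE, nitrocellulose, anti-METTL3/anti-METTL14 blots, GAPDH/β-actin loading controls, IR imaging, densitometry.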

[2] = biological target: T1, METTL3-14 (Homo sapiens, UniProt Q86U44); assay: Cellular degradation assay (Western blot) in KASUMI-1; assay type: cell-based; set-up: METTL3–14 degradation up to 70% of the endogenous level; endogenous in cells; host or cells: MOLM-13, KASUMI-1, THP-1, NOMO-1; details: KASUMI-1, 2 μM, 24 h
Procedure: (§1) MOLM-13, NOMO-1, THP-1, Kasumi-1, PC3, and DU145 cell lines were obtained from DSMZ-German Collection of Microorganisms and Cell Cultures GmbH. Cells were cultured in RPMI 1640 medium (11875093, Thermo Fisher Scientific) containing 10% FBS (16140071, Thermo Fisher Scientific) and 1% penicillin-streptomycin (15140122, Thermo Fisher Scientific) in 5% CO2 at 37 °C in a humidified incubator, with maintained cell densities at 0.5–1 × 10^6 cells/mL. All cell lines were tested negative for mycoplasma contamination (PCR-based assay by Microsynth, Switzerland).
(§2) METTL3 (and METTL14) protein degradation was monitored by Western blot. Cells were treated with the indicated concentration of PROTACs or DMSO control (0.1% (v/v)) for 24h, 37 °C with 5% CO2. Samples were then collected and lysed with RIPA buffer with added protease inhibitors (11697498001, Roche). After SDS-PAGE, proteins were transferred to a nitrocellulose membrane, blocked (with 5% milk, 0.5% BSA in TBST buffer), and incubated overnight with primary antibodies. The following antibodies were used: GAPDH (no. 2118, Cell Signaling, 1:4000), β-actin (ab8226, Abcam, 1:2000), METTL3 (ab195352, Abcam, 1:1000), and METTL14 (ab220031, Abcam, 1:1000). Membranes were scanned using an LI-COR Odyssey DLx imager after incubation with appropriate secondary antibodies (antimouse IgG IRDye 680RD (926–68072, LI-COR, 1:10000) and goat anti-Rabbit IgG IRDye 800CW (926–32211, LI-COR, 1:10000)). Densitometry was performed in Image Studio Lite software and analyzed in GraphPad Prism 9.

[3] = biological target: T1, METTL3-14; assay: Cellular degradation assay (Western blot) in THP-1; assay type: cell-based; set-up: METTL3–14 degradation up to 70% of the endogenous level; endogenous in cells; host or cells: MOLM-13, KASUMI-1, THP-1, NOMO-1; details: THP-1, 2 μM, 24 h
Procedure: as §1, §2

[4] = biological target: T1, METTL3-14; assay: Cellular degradation assay (Western blot), METTL3 and/or METTL14 (METTL3–14) in MOLM-13; assay type: cell-based; set-up: METTL3–14 degradation up to 70% of the endogenous level; endogenous in cells; host or cells: MOLM-13, KASUMI-1, THP-1, NOMO-1; details: for concentration at which the highest degradation was observed: MOLM-13, five concentrations; for METTL3–14 levels in the presence of UZH2: MOLM-13, 2 μM PROTAC + 10 μM UZH2; for METTL3–14 degradation in the presence of lenalidomide: MOLM-13, 2 μM PROTAC + 10 μM lenalidomide; for degradation of METTL3 and/or METTL14: MOLM-13, 2 μM, 24 h, Western blot
Procedure: MOLM-13, NOMO-1, THP-1, Kasumi-1, PC3, and DU145 cell lines were obtained from DSMZ-German Collection of Microorganisms and Cell Cultures GmbH. […] All cell lines were tested negative for mycoplasma contamination (PCR-based assay by Microsynth, Switzerland).
METTL3 (and METTL14) protein degradation was monitored by Western blot. Cells were treated with the indicated concentration of PROTACs or DMSO control (0.1% (v/v)) for 24h, 37 °C with 5% CO2. […] After SDS-PAGE, proteins were transferred to a nitrocellulose membrane, blocked (with 5% milk, 0.5% BSA in TBST buffer), and incubated overnight with primary antibodies. […] Densitometry was performed in Image Studio Lite software and analyzed in GraphPad Prism 9.

[5] = Cell viability assay (CellTiter-Glo) on MOLM-13; assay type: cell-based; details: human, MOLM-13 cells, average of two biological replicates; for viability at 72 h, […]: 2.5 µM
Outline: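 MOLM-13 AML cells grown in RPMI 1640 with 10% FBS at 37 °C, 5% CO2. Viability read as ATP luminescence by CellTiter-Glo after 10 min at room temperature, with background from cell-free medium wells subtracted.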

[6] = tested on: PC3 cell line; assay: Cell viability assay (CellTiter-Glo) on PC3; assay type: cell-based, human
Procedure: as §1
Cells were seeded in white clear-bottom 96-well plates at a density of 6–20 × 10^3 cells/well in 50 μL of the complete RPMI medium and treated with 50 μL of increasing concentrations of the indicated compounds dissolved in DMSO (final concentration of compounds 0.01–10 μM) or DMSO only as a negative control (0.01% (v/v)) and incubated for 72 h at 37 °C with 5% CO2. Cell viability was determined using a CellTiter-Glo luminescent cell viability assay (Promega) based on the detection of ATP according to the manufacturer’s instructions. 100 μL of the reagent was added to each well and incubated for 10 min at room temperature. The luminescence was recorded using a Tecan Infinite […] M1000 microplate reader from the top. Background luminescence value was obtained from wells containing the CellTiter-Glo reagent and medium without cells. The resulting data was analyzed in GraphPad Prism 9.

T1 sequence (Q86U44 2-580 limits assumed): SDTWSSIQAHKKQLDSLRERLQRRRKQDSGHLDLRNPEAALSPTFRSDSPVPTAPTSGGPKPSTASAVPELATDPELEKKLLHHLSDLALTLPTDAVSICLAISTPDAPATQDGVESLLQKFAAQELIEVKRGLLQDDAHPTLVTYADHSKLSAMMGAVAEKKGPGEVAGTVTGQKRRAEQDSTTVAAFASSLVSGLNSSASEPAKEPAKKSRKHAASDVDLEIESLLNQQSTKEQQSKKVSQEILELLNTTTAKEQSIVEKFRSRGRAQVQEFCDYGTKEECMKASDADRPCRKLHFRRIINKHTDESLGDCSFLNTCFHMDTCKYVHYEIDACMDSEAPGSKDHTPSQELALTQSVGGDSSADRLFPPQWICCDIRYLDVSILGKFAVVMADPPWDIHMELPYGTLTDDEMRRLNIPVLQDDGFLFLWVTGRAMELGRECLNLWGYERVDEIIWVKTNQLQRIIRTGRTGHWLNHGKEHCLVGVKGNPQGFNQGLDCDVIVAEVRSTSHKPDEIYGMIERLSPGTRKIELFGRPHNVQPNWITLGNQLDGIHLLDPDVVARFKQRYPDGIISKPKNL
T1 sequence (Q9HCE5 whole entry partner): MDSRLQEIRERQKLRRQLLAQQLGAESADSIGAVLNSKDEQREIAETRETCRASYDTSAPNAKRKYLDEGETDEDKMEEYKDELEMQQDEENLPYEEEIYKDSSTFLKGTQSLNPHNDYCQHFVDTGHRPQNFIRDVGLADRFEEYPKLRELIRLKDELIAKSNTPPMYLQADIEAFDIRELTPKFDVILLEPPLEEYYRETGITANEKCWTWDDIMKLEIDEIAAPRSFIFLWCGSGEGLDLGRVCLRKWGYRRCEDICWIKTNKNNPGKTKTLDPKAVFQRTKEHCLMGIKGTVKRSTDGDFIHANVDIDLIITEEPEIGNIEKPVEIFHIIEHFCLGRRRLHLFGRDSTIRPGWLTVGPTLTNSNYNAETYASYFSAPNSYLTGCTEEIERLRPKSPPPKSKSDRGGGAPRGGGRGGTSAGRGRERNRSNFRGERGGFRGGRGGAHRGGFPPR

SMILES | MOLM-13 West. blot at 24h 2 μM comp conc. Degradation (%) of METTL14 [1] | degradation of both METTL3 and METTL14 relative to MOLM-13 [2] | degradation levels of METTL3 and METTL14 [3] | concentration at which the highest degradation was observed [4] | viability at 72 h, 0.6 µM [5] | viability at 72 h, 1.25 µM [5] | viability at 72 h, […] [5] | viability at 72 h, 5 µM [5] | viability at 72 h, 10 µM [5] | METTL3–14 levels in the presence of UZH2 [4] | METTL3–14 degradation in the presence of lenalidomide [4] | degradation of METTL3 and/or METTL14 [4] | antiproliferative effect [6] | degradation of the POI [2] | highest degradation in concentration dependence ([4]; MOLM-13, 0.1 μM)
CC1(C)CCN(Cc2cc(F)c(N3CC(=O)NC4(CCN(c5cc(NCc6cccc(CNC(=O)CCCNc7cccc8c7C(=O)N(C7CCC(=O)NC7=O)C8=O)c6)ncn5)CC4)C3)cc2F)CC1 (stereo not shown) [Compound 14] | 52% and 52 ± 6% | higher degradation | comparable to those in MOLM-13 | 1 µM | 95.5% | 97.5% | 103% | 102% | 94.1% | – | – | – | – | – | –
CC1(C)CCN(Cc2cc(F)c(N3CC(=O)NC4(CCN(c5cc(NCc6cccc(CNC(=O)CCCCCCCCCCn7cc(CNc8cccc9c8C(=O)N(C8CCC(=O)NC8=O)C9=O)nn7)c6)ncn5)CC4)C3)cc2F)CC1 (stereo not shown) [Compound 20] | 51% and 51 ± 10% | higher degradation | comparable to those in MOLM-13 | – | 101% | 94.6% | 90.7% | 89.5% | 86.4% | elevated levels of METTL3–14 | did not observe any degradation | ≥ 50% | – | – | –
CC1(C)CCN(Cc2cc(F)c(N3CC(=O)NC4(CCN(c5cc(NCC6CCN(C(=O)CCCNc7cccc8c7C(=O)N(C7CCC(=O)NC7=O)C8=O)CC6)ncn5)CC4)C3)cc2F)CC1 (stereo not shown) [Compound 22] | 55 ± 11% | higher degradation | comparable to those in MOLM-13 | – | 95.8% | 97.8% | 96.2% | 88.4% | 77.4% | – | – | – | antiproliferative effect | – | –
CC1(C)CCN(Cc2cc(F)c(N3CC(=O)NC4(CCN(c5cc(NCC6CCN(C(=O)CCCCCNc7cccc8c7C(=O)N(C7CCC(=O)NC7=O)C8=O)CC6)ncn5)CC4)C3)cc2F)CC1 (stereo not shown) [Compound 24] | 50 ± 13% | higher degradation | comparable to those in MOLM-13 | – | 102% | 95.2% | 109% | 104% | 91% | elevated levels of METTL3–14 | did not observe any degradation | ≥ 50% | antiproliferative effect | – | –
CC1(C)CCN(Cc2cc(F)c(N3CC(=O)NC4(CCN(c5cc(NCCN6CCN(C(=O)CCCCCNc7cccc8c7C(=O)N(C7CCC(=O)NC7=O)C8=O)CC6)ncn5)CC4)C3)cc2F)CC1 (stereo not shown) [Compound 30] | – | higher degradation | comparable to those in MOLM-13 | 0.1 µM | 91.3% | 90.9% | 91.1% | 82.5% | 78.4% | – | – | – | antiproliferative effect | 70% | up to 60%
